Reference: article PMC6121260, “Sulfated Metabolites of Flavonolignans and 2,3-Dehydroflavonolignans: Preparation and Properties” (International Journal of Molecular Sciences, 2018)
Marks after values point to notes of the source that are not given here.

Key:
[1] = Ferric reducing antioxidant power (FRAP); type: biochemical; conditions: equivalents of Fe^2+, mean ± standard error
Description: (§1) N,N-dimethyl-p-phenylenediamine (DMPD) and 2,2′-azino-bis(3-ethylbenzothiazolin-6-sulfonic acid (ABTS) cation radical scavenging and ferric reducing antioxidant power (FRAP) were measured using kits from Bioquochem (Llanera-Asturias, Spain). Antiradical activity by 2,2-diphenyl-1-picrylhydrazyl radical scavenging assay, reducing capacity using Folin–Ciocalteau reagent (FCR), and anti-lipoperoxidant activity using inhibition of lipid peroxidation of rat liver microsomes induced by tert-butyl hydroperoxide were determined as described previously with modifications described in detail in our previous research.

[2] = tested on: NAD(P)/quinone oxidoreductase 1 (NQO1) activity in Hepa1c1c7 cells; experiment: NQO1 activity in Hepa1c1c7 cells (Nrf2 pathway); type: cell-based, murine; conditions: 48 h; for NQO1 activity, fold versus control: 50 µM
Description: The murine hepatoma Hepa1c1c7 cell line (ECACC, Salisbury, UK) was cultured in minimum essential medium α (M0894, Sigma-Aldrich, St. Louis, MO, USA), supplemented with 2.2 g/L NaHCO3 and 10% heat- and charcoal-treated fetal bovine serum (Biochrom, Berlin, Germany), and maintained at 37 °C in a humidified atmosphere containing 5% CO2. For all experiments, cells were seeded onto 96-well plates at 1 × 10^4 cells/well. After 24 h of stabilization, cells were treated for 48 h with 0.1% (v/v) DMSO (negative control), 2.5 µM sulforaphane (positive control; Sigma-Aldrich, St. Louis, MO, USA), or with the tested compounds in fresh culture medium. After the treatment, the activity of NQO1 was determined spectrophotometrically as described previously. Cells were washed with phosphate-buffered saline (PBS) and lysed with 75 µL of digitonin solution (0.8 g/L digitonin, 2 mM EDTA, pH 7.8) by shaking on an orbital shaker for 20 min at room temperature. A part of the cell lysate (20 µL) was used to determine the protein content. The remaining lysate (55 µL) was mixed with 200 µL of 0.5 M Tris-Cl buffer containing 10% (w/v) bovine serum albumin, 1.5% (v/v) Tween-20, 7.5 mM FAD, 150 mM glucose-6-phosphate, 2 U/mL glucose-6-phosphate dehydrogenase (Roche Diagnostics, Mannheim, Germany), 50 mM NADP^+, 25 mM menadione, and 0.7 mM 3-(4,5-dimethylthiazol-2-yl)-2,5-diphenyltetrazolium bromide (MTT). The mixture was incubated for 5 min at room temperature and the reaction was stopped with 50 µL of dicumarol suspension (0.3 mM dicumarol, 5 mM potassium phosphate, 0.5% (v/v) DMSO). The absorbance of the reduced MTT corresponding to the activity of NQO1 was measured at 610 nm on a spectrophotometric plate reader. The absorbance values were normalized to the protein content and used for the calculation of fold changes versus the control.

[3] = Inhibition of lipoperoxidation (Lpx) induced by tert-butyl hydroperoxide; type: biochemical; conditions: rat liver microsomal membranes, mean ± standard error
Description: as §1

DPPH radical scavenging = type: biochemical; conditions: mean ± standard error
Description: as §1

[4] = ABTS+ cation radical scavenging; type: biochemical; conditions: vitamin C equivalents, mean ± standard error
Description: as §1

[5] = Folin–Ciocalteu reagent (FCR) reduction; type: biochemical; conditions: Folin–Ciocalteau reagent reduction, gallic acid equivalents, mean ± standard error
Description: as §1

[6] = DMPD+ cation radical scavenging; type: biochemical; conditions: vitamin C equivalents, mean ± standard error
Description: as §1

[7] = Log p, octan-1-ol / phosphate buffer partition; type: physicochemical; conditions: octan-1-ol / 6.6 mM phosphate buffer pH 7.4, 25 °C
Description: The hydrophobicity of the compounds was determined by measuring their partition coefficient P in a mixture of two immiscible phases—octan-1-ol and 6.6 mM phosphate buffer pH 7.4. Stock solutions (0.5 mM) were prepared in octan-1-ol (parent compounds) and in the buffer (sulfated compounds). The stock solutions (150 µL) were mixed with 150 µL of the immiscible phase in microcentrifuge tubes (1.5 mL); shaken for 2 h (750 rpm, 25 °C); and after incubation, the phases were separated. Water phases were diluted 1:1 with the mobile phase (acetonitrile/deionized water/HCO2H, 5:95:0.1; v/v) and analyzed by HPLC using the gradient G3 (see Section 3.1.3). Octan-1-ol phases were evaporated in the stream of air (70 °C), then dissolved in 10 µL of DMSO, and mixed with 90 µL of mobile phase and analyzed by HPLC. The log p values were calculated from the respective peak heights (h) using the formula log p = log(hoctanol/hbuffer). For comparison, log p values were calculated using the Molinspiration property engine v2016.10 (http://www.molinspiration.com, Molinspiration Cheminformatics, Slovensky Grob, Slovakia) (access on 26th October 2017).

[8] = molecular target: T1, aryl sulfotransferase from rat liver (AST IV) (Rattus norvegicus, UniProt P17988); experiment: Substrate specificity of AST IV (whole E. coli cells, p-NPS donor); type: in vitro ADME; parameters: key: +: isolated sulfated product(s) and/or release of p-nitrophenol (p-NP); –: no formation of p-NP and/or isolated sulfated products; conditions: whole E. coli cells expressing AST IV, 37 °C, 72 h
T1 construct: made in house; host or cells: E. coli BL21 (DE3) Gold (whole cells used as catalyst)
T1 sequence (P17988 whole entry): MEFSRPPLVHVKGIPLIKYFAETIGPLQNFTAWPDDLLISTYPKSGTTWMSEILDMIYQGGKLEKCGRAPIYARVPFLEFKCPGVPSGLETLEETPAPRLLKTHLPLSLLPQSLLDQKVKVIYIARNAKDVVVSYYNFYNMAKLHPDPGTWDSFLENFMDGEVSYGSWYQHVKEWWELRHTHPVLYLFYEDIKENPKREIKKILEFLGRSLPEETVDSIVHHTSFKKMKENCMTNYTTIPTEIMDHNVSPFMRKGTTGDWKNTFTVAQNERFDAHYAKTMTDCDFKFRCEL
Description: The plasmid bearing astIV gene was kindly provided by Prof. L. Elling, RWTH Aachen, Germany. The enzyme was expressed in E. coli BL21 (DE3) Gold as described, with modifications reported in our previous work. Whole E. coli cells producing the enzyme, freshly prepared according to the literature, were employed in the biotransformation experiments as a catalyst.
Silybin, silybin A, silybin B, silychristin, and silydianin (separately, each 50 mg, 0.104 mmol) and p-nitrophenyl sulfate (p-NPS, 35 mg, 0.136 mmol; Sigma-Aldrich, St. Louis, MO, USA) were dissolved in 3 mL DMSO, and 2 g (wet based) of whole cells expressing AST IV resuspended in K-phosphate buffer (pH 7.5, 17 mL) were added. The reaction mixture was incubated on a rotary shaker at 37 °C for 24 h. The cells were then removed by centrifugation (30 min, 5000 rpm, 5404 R Eppendorf, Germany), a new portion of fresh cells (2 g in 15 mL, wet based, resuspended in K-phosphate buffer) were added to the supernatant and incubated for 24 h. This step was repeated once more with a total reaction time of 72 h. The reaction was monitored by HPLC and after 72 h, the reaction mixtures, containing the sulfated product(s), were purified by preparative HPLC employing Asahipak GS-310 20F (Shodex, Tokyo, Japan) column with isocratic elution with 100% methanol. The fraction containing the putative sulfated product(s) was evaporated, dissolved in 1 mL of 80% methanol, and loaded onto a Sephadex LH-20 column (15 g dry weight, 12 mm i.d.) packed and eluted with 80% methanol. Only one sulfated product was obtained; silybin B 20-O-sulfate (14.5 mg, 0.03 mmol, yield 25%), whose identity was confirmed by comparison with previously published data.

| Structure (SMILES) | IC50 [3] [µM] | IC50 (DPPH radical scavenging) [µM] | logP at 2 h [7] | FRAP [Fe^2+] [1] | NQO1 activity, fold versus control [2] [fold] | ABTS^+ [CE] [4] | FCR [GAE] [5] | DMPD^+ [CE] [6] | further results |
| --- | --- | --- | --- | --- | --- | --- | --- | --- | --- |
| COc1cc([C@H]2Oc3cc([C@H]4Oc5cc(O)cc(O)c5C(=O)[C@@H]4O)ccc3O[C@@H]2CO)ccc1OS(=O)(=O)O [Silybin A 20-O-sulfate] | > 1000 | > 2500 | -1.65 | 0.01 ± 0.00 ^p Fe^2+ | 1.2 | 0.02 ± 0.00 CE | 0.08 ± 0.01 GAE | 0.98 ± 0.01 ^n CE | FCR [GAE] ([5]; listed as silybin sulfates A): 0.08 GAE |
| COc1cc(C2Oc3cc([C@H]4Oc5cc(O)cc(O)c5C(=O)[C@@H]4O)ccc3OC2CO)ccc1O (stereo partly shown) [Silybin A/B, Silybin] | – | – | – | – | – | – | – | – | Formation of p-NP [8]: + ^a |
| COc1cc([C@@H]2Oc3cc([C@H]4Oc5cc(O)cc(O)c5C(=O)[C@@H]4O)ccc3O[C@H]2CO)ccc1OS(=O)(=O)O [Silybin B 20-O-sulfate] | > 1000 | > 2500 | -2.34 | 0.01 ± 0.00 ^p Fe^2+ | 0.9 | 0.04 ± 0.00 CE | 0.16 ± 0.02 GAE | 0.99 ± 0.01 ^n CE | FCR [GAE] ([5]; listed as silybin sulfates B): 0.16 GAE |
| COc1cc([C@@H]2[C@H]3CO[C@@]4(O)C(=O)[C@@H]2C=C([C@H]2Oc5cc(O)cc(O)c5C(=O)[C@@H]2O)[C@@H]34)ccc1O [Silydianin] | – | – | – | – | – | – | – | – | Formation of p-NP [8]: + ^a |
| C[S+]([O-])CCCCN=C=S (stereo not shown) [sulforaphane, reference compound] | – | – | – | – | – | – | – | – | NQO1 activity, fold increase compared with the control ([2]; 2.5 µM, positive control): 4.3 fold |

Continued by falling IC50 [3], values first:

| IC50 [3] [µM] | IC50 (DPPH radical scavenging) [µM] | logP at 2 h [7] | Structure (SMILES) | FRAP [Fe^2+] [1] | NQO1 activity, fold versus control [2] [fold] | ABTS^+ [CE] [4] | FCR [GAE] [5] | DMPD^+ [CE] [6] | further results |
| --- | --- | --- | --- | --- | --- | --- | --- | --- | --- |
| 134 ± 2 | 587 ± 11 | -2.25 | COc1cc(C2Oc3c(O)cc([C@H]4Oc5cc(O)cc(O)c5C(=O)[C@@H]4O)cc3C2CO)ccc1OS(=O)(=O)O (stereo partly shown) [Silychristin-19-O-sulfate] | 0.05 ± 0.01 ^q Fe^2+ | 1.3 | 0.62 ± 0.03 ^k CE | 0.80 ± 0.11 ^m GAE | 1.56 ± 0.08^o CE | – |
| 90.7 ± 3.3 | 106 ± 4 | < -3 | COc1cc(C2Oc3cc(-c4oc5cc(OS(=O)(=O)O)cc(O)c5c(=O)c4O)ccc3OC2CO)ccc1OS(=O)(=O)O (stereo not shown) [2,3-Dehydrosilybin-7,20-di-O-sulfate] | 1.61 ± 0.04 Fe^2+ | 1.2 | 0.55 ± 0.03 CE | 0.95 ± 0.01 ^m GAE | 1.90 ± 0.10 CE | FRAP [Fe^2+] ([1]; listed as 2,3-dehydrosilybin-7,20-di-O-sulfate): 1.61 Fe^2+; DMPD^+ [CE] ([6]; listed as 2,3-dehydrosilybin disulfate): 1.90 CE |
| 48.6 ± 0.4 | 490 ± 21 | 1.52 | COc1cc([C@H]2Oc3cc([C@H]4Oc5cc(O)cc(O)c5C(=O)[C@@H]4O)ccc3O[C@@H]2CO)ccc1O [Silybin A, silybin A, reference compound] | 0.06 ± 0.00 Fe^2+ | – | 1.01 ± 0.03 ^i CE | 0.33 ± 0.02 ^k GAE | 0.96 ± 0.01 ^n CE | Formation of p-NP [8]: – ^c |
| 32.7 ± 2.4 | 2.9 ± 0.1 | – | Cc1c(C)c2c(c(C)c1O)CCC(C)(C(=O)O)O2 (stereo not shown) [Trolox, reference compound] | – | – | – | 0.33 ± 0.00 ^k GAE | – | – |
| 14.6 ± 0.4 | 8.6 ± 0.8 | > 3 | COc1cc(C2Oc3c(O)cc(-c4oc5cc(O)cc(O)c5c(=O)c4O)cc3C2CO)ccc1O (stereo not shown) [2,3-Dehydrosilychristin, reference compound] | 0.28 ± 0.01 Fe^2+ | – | 0.93 ± 0.03 ^l CE | 1.58 ± 0.04 ^l GAE | 0.97 ± 0.02 ^n CE | FCR [GAE] ([5]; listed as 2,3-dehydrosilychristin): 1.58 GAE |
| 13.7 ± 0.4 | 14.1 ± 0.5 | -2.16 | COc1cc(C2Oc3cc(-c4oc5cc(O)cc(O)c5c(=O)c4O)ccc3OC2CO)ccc1OS(=O)(=O)O (stereo not shown) [2,3-Dehydrosilybin-20-O-sulfate] | 1.46 ± 0.03 ^r Fe^2+ | 1.3 | 0.71 ± 0.03 ^j CE | 1.03 ± 0.01 ^m GAE | 0.97 ± 0.02 ^n CE | – |
| 12 ± 1.8 | 7.9 ± 0.3 | -2.24 | COc1cc(C2Oc3c(O)cc(-c4oc5cc(O)cc(O)c5c(=O)c4O)cc3C2CO)ccc1OS(=O)(=O)O (stereo not shown) [2,3-Dehydro-silychristin-19-O-sulfate, 2,3-Dehydrosilychristin-19-O-sulfate] | 1.44 ± 0.04 ^r Fe^2+ | 1.4 | 0.62 ± 0.02 ^n CE | 1.44 ± 0.01 ^l GAE | 1.02 ± 0.04 ^n CE | IC50 (DPPH radical scavenging; listed as 2,3-dehydrosilychristin monosulfate): 8 µM |
| 10.4 ± 0.4 | 13.3 ± 0.6 | > 3 | COc1cc(C2Oc3cc(-c4oc5cc(O)cc(O)c5c(=O)c4O)ccc3OC2CO)ccc1O (stereo not shown) [2,3-Dehydrosilybin, reference compound] | 0.81 ± 0.02 Fe^2+ | – | 0.77 ± 0.01 ^j CE | 1.51 ± 0.09 ^l GAE | 1.02 ± 0.02 ^n CE | FRAP [Fe^2+] ([1]; listed as 2,3-dehydrosilybin): 0.81 Fe^2+; IC50 (DPPH radical scavenging; listed as 2,3-dehydrosilybin): 13 to 14 µM; FCR [GAE] ([5]; listed as 2,3-dehydrosilybin): 1.50 GAE |
